These are literature values, as cited in patent US5175181A, “Imidazolyl/imidazolylalkyl-N-terminal amino hydroxy” (G. D. Searle & Co., priority 1991, dated 1992).

Data set [1] deals with aspartyl proteases such as pepsin, cathepsin D and renin. The note with it: Umezawa et al, J. Antibiot. 1970.
In another data set the test system is hog renin. The note with it: after injection of hog renin into nephrectomized rats; Gross et al, Science 1971.

Square brackets hold non-standard residues; d marks the D form. Peptide text beside a SMILES is read from it. * marks the point of attachment. Sta = CC(C)C[C@H](N)[C@@H](O)CC(=O)O; Isovaleryl = CC(C)CC(=O)*

Consider `CC(C)CC(=O)N[C@H](C(=O)N[C@H](C(=O)N[C@@H](CC(C)C)[C@@H](O)CC(=O)N[C@@H](C)C(=O)N[C@@H](CC(C)C)[C@@H](O)CC(=O)O)C(C)C)C(C)C` [pepstatin] (Isovaleryl-VV[Sta]A[Sta]-OH), for which, in data set [1], the “inhibition of aspartyl proteases” value is reported as “inhibitor of aspartyl proteases”. The “blood pressure in vivo” value with hog renin is recorded as “reduce blood pressure”.
